Experimental findings from US20070078125A1, “Arylamine mch r1 antagonists” (GLAXO GROUP LIMITED, priority 2003, published 2007) are described below.

One series concerns the target T1, hERG potassium channel (Homo sapiens, UniProt Q12809).
T1 construct: expressed in transfected cells; host or cells: HEK-293 cells, BacMam viral expression system
The series can be described thus: hERG whole cell patch clamp, tail current inhibition in HEK-293 cells. Format: cell-based. The note with it: tail current at −40 mV, room temperature; for inhibition at 3 µM: human, pH 7.4, 3 μM, read-out: hERG Inhibition, % inhib. @ 3 μM. The procedure: The comparison was carried out as follows. The hERG potassium channels were transiently expressed in HEK-293 cells using the Bacmam viral expression system (Kost et al, 2000: Pfohl et al, 2001). The HEK-293 cells were maintained in cell media comprised of D-MEM/F12, 10% fetal bovine serum, penicillin G sodium 100 units/mL, and streptomycin sulfate 100 μg/mL. Cells were grown to confluency in flasks and were rinsed once with PBS prior to passage. The flasks were incubated with VERSENE (EDTA) 1:5000 for 5 minutes at 37° C. to detach the cells from the flasks. Cells used in electrophysiology experiments were plated on glass coverslips and transfected 24 to 72 hours prior to use.
hERG channels were studied using the whole cell mode of the patch clamp technique (Hamill et al., 1981). The pipette solution contained 145 mM K+Aspartate, 11 mM EGTA, 5 mM NaCl, 5 mM MgATP, 5 mM HEPES, pH 7.4, and the bath solution contained 145 mM NaCl, 4 mM KCl, 2 mM CaCl2, 1 mM MgCl2, 10 mM HEPES, 10 mM d-glucose pH 7.4. To measure drug effects, the cells were held at −80 mV, then stepped to +20 mV for 400 ms followed by a second pulse to −40 mV so that the outward tail current characteristic of hERG could be measured. […] This pulse protocol was repeated at ten-second intervals during the superfusion of the test article diluted in the bath solution. The inhibition of hERG was determined by measuring the peak amplitude of the tail currents at −40 mV before and after compound application. The half-maximal inhibitory concentration (IC50) was determined from a curve fit of Hill equation to the data points. […] All experiments were conducted at room temperature (approximately 25° C.).

The next series addresses T2, MCH R1 (Homo sapiens, UniProt Q99705).
T2 construct: expressed in transfected cells; host or cells: CHO cells stably expressing elkgal4-luc+ reporter gene (CHO-K1, ATCC)
The series can be described thus: functional antagonist assay of MCH R1 (elkgal4-luc+ reporter gene, CHO cells, inhibition of MCH EC80 response). Type of series: cell-based. To be noted: MCH1R-elkgal4-luc+ CHO cells, read-out: MCH R1 pIC50 (converted). From the text:
The activity of the compounds used in this invention may be assessed in a functional assay of MCH R1 as follows:
Black, 96-well, tissue culture-treated plates (#3904) were obtained from Corning Costar, (Cambridge, Mass.), LucPlus™ Luciferase Reporter Gene Assay Kit (# 6016969) was from Packard (Meriden, Conn.), plate seals (#097-05-00006) were from Beckman/Sagian (Fullerton, Calif.). DMEM/F12 medium (#11039-021), fetal bovine serum (# 16140-071), L-glutamine (#25030-081), 0.05% trypsin (# 25300-054), G418 (#10131-035) and dPBS (#4190-144) were obtained from Gibco BRL (Gaithersburg, Md.). […]
CHO cells, stably expressing an elkgal4-luc^+ reporter gene (host) were transfected by electroporation with the human melanin-concentrating hormone one receptor. […] Plates were sealed and subjected to dark adaptation at room temperature for 10 minutes before luciferase activity was quantitated on a TopCount™ microplate scintillation counter (Packard) using 3 seconds/well count time. The ability of the antagonist to inhibit the MCH EC80 response was quantified by non-linear regression analysis using a curve-fitting program based in Microsoft ExCel. Specificity of the MCH R1 response was determined using the same protocol by measuring the ability of said antagonists to inhibit an EC80 thrombin response (endogenous) in the host cells.

T1 sequence (Q12809 whole entry): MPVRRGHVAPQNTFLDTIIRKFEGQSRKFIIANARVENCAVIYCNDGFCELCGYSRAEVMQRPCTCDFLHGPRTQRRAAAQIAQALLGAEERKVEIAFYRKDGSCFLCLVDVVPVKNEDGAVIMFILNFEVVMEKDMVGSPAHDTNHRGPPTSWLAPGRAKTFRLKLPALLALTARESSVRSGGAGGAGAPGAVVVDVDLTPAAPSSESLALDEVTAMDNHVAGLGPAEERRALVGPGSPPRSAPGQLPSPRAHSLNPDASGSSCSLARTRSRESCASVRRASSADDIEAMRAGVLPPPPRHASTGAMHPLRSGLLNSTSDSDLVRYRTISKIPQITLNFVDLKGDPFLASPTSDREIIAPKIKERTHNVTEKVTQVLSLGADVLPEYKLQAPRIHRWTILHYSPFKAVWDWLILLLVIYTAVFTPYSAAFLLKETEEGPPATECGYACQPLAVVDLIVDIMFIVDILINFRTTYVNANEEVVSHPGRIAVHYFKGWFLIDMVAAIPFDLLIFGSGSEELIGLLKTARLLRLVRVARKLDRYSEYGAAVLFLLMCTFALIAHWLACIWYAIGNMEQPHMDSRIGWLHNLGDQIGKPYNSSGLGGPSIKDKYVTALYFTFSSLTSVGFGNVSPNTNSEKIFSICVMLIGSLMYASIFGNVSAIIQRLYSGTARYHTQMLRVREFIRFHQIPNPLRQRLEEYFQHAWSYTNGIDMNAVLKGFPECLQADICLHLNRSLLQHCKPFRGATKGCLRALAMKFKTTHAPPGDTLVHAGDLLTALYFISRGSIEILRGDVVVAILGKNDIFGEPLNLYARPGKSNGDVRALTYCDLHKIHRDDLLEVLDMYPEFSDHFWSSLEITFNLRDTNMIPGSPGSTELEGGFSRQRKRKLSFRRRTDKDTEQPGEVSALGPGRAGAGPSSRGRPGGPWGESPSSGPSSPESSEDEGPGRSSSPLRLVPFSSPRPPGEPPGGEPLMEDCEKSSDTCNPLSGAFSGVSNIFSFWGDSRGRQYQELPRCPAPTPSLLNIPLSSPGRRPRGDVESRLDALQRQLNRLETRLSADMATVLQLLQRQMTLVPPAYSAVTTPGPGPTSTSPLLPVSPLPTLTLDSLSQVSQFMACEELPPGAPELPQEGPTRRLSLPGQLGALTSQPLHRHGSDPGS
T2 sequence (Q99705 whole entry, the tested form may be a part): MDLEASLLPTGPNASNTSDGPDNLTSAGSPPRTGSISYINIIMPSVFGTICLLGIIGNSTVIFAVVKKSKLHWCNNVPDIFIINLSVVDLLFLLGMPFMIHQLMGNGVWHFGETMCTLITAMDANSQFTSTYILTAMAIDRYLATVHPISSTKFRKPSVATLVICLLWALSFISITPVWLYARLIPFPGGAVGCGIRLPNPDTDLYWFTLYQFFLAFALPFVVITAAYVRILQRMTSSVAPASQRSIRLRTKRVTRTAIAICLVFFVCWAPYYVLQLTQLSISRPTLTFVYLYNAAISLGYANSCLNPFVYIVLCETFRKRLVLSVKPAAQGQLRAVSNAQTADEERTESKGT

As to `COc1cc(-n2cnc3cc(-c4ccc(Cl)cc4)sc3c2=O)ccc1OCCN1CC[C@H](O)C1` [Comparison Example 1], at hERG potassium channel, the inhibition at 3 µM is 62% and the IC50 turned out to be 2000 nM.

In the case of `COc1cc(-n2cnc3cc(-c4ccc(Cl)cc4)sc3c2=O)ccc1OCCN1CC[C@@H](O)C1` [Comparison Example 2], the inhibition at 3 µM at hERG potassium channel turned out to be 90%. For the molecule `COc1cc(-n2cnc3cc(-c4ccc(Cl)cc4)sc3c2=O)ccc1OCCCN1CC[C@@H](O)C1` [Comparison Example 3], the inhibition at 3 µM at hERG potassium channel was found to be 84%.

For `COc1cc(-n2cnc3cc(-c4ccc(Cl)cc4)sc3c2=O)ccc1N1CC[C@@H](O)C1` [Example 1, 6-(4-chlorophenyl)-3-{4-[(3R)-3-hydroxypyrrolidin-1-yl]-3-methoxyphenyl}thieno[3,2-d]pyrimidin-4(3H)-one], the IC50 at MCH R1 was 2.51 nM. Consider `COc1cc(-n2cnc3cc(-c4ccc(Cl)cc4)sc3c2=O)ccc1N1CC[C@H](O)C1` [Example 4, 6-(4-chlorophenyl)-3-{4-[(3S)-3-hydroxypyrrolidin-1-yl]-3-methoxyphenyl}thieno[3,2-d]pyrimidin-4(3H)-one], for which, on MCH R1, the IC50 is 2 nM.
